Measured values from US10233205B2, “Magnetic resonance imaging contrast agent capable of detecting hydrogen peroxide and reducing reactive oxygen species” (Auburn University, priority 2015, dated 2019).

Assays:
Solubility in water = format: physicochemical; conditions: pure H2O
[1] = Competitive binding assay with TPEN for log(K) of ligand binding to Mn(II); format: physicochemical
Procedure: The log(K) was measured via a competitive binding assay between N,N,N′,N′-tetrakis(2-pyridylmethyl)ethylenediamine (TPEN) and the ligand (L). Various amounts of TPEN were added to a solutions of the ligand in MeCN-d3 and D2O.
The log(K) for the complexation of H2qtp1 to Mn(II) was estimated through a titration with the metal-scavenging agent TPEN (N,N,N′,N′-tetrakis(2-pyridinylmethyl)ethylenediamine, log K=10.3). The ratios of free TPEN to free ligand were assessed by ^1H NMR.
Given the known log(K) of 10.3 for TPEN's binding to Mn(II), a log(K) of 10.7 was thereby assigned for the coordination of H2qtp1 to Mn(II). […] The log(K) of 10.7 is nearly identical to the 10.6 value estimated for a related ligand from our laboratory that contains a para-methylphenol group in place of the H2qtp1's quinol.

[2] = Potentiometric pH titrations, Hyperquad model; conditions: for log(β): Hyperquad model, 100 mM KCl, 25° C.
Source text: (§2) The speciation in water was more rigorously probed with potentiometric pH titrations. […] The quinolic protons likely deprotonate at higher pH values (pKa˜10), but we were unable to obtain the high pH data necessary to confirm this.
(§3) The data were fit to a model containing the protonated forms of the free ligand and four Mn(II) complexes with the ligand in various protonation states: [Mn(H2qtp2)], [Mn(H3qtp2)]^+, [Mn(H4qtp2)]^2+, and [Mn(H4qtp2)]^3+ (Scheme 4).

[3] = conditions identical to those used for 3; cited from earlier work
[4] = T1-weighted relaxivity (r1) on 3 T clinical MRI scanner; format: physicochemical; conditions: no oxidant; 50 mM HEPES pH 7.00, 3 T, 25° C.
Source text: All MRI data were collected at the Auburn University MRI Research Center (Auburn, Ala.) on a Siemens Verio open-bore 3-T MRI clinical scanner. A 15-channel knee coil was used to simultaneously image 12-26 samples. An inversion recovery (IR) sequence was used that featured a non-selective adiabatic inversion pulse followed by a slice-selective gradient recalled echo (GRE) readout after a delay period corresponding to the inversion time (TI).^1-2 The GRE was a saturation readout, such that only one line of k-space was acquired per repetition time (TR). This method was selected to maximize both the signal strength and the accuracy of the T1 estimates. Specific imaging parameters were as follows: TR was set to 4 s, TI was varied from 4.8 to 2500 ms over 37 steps, the echo time (TE) was set to 3.6 ms, the flip angle equaled 90°, averages=1, slice thickness=5 mm, field of view=140×140 mm, matrix=128×128, resulting in a pixel size of 1.1×1.1×5.0 mm. All samples were run in 50 mM solutions of HEPES in water, buffered to pH 7.0 and kept at […]. The manganese content was systematically varied from 0.10 to 1.00 mM. The inverses of the T1 values were plotted versus the concentration of Mn(II) to obtain r1 values. All reported r1 values are averages from the results of two separate series of experiments. Each series of experiments used a different batch of 1.
Image analysis was performed using custom Matlab programs (Mathworks, Natick, Mass.). The initial TI=4.8 ms image served as a baseline to determine circular region of interest (ROI) boundaries for each sample; from these, the mean pixel magnitudes for each ROI were calculated. For each of the 36 subsequent TI images, the same ROI boundaries were applied and the mean pixel magnitude calculations were repeated. This gave consistent ROI spatial definitions and a corresponding time course of magnitudes for each of the samples over all the TI time points. Each sample's complex phase was used to correct the magnitude polarity to produce a complete exponential T1 inversion recovery curve. The Nelder-Mead simplex algorithm^3 was applied to each sample's exponential curve to estimate its corresponding T1 value.
(§1) For the relaxivity measurements, all samples were run in 298 K aqueous solutions containing 50 mM HEPES buffered to pH 7.00, using a 3 T field provided by a clinical MRI scanner. The data were fit to the indicated linear equations; the y-intercepts were within error of 1/T1 measurements associated with two control samples that contained no Mn(II): (A) 10 mM H2O2 in 50 mM HEPES buffer and (B) pure 50 mM HEPES buffer (both 0.46 s^−1).
as §1, with “All” for “For the relaxivity measurements, all”, “s^−1). The oxidation of 1 by 2,3-dichloro-5,6-dicyano-1,4-benzoquinone (DDQ) occurred in CH2Cl2. After the reaction occurred, the 2,3-dichloro-5,6-dicyanoquinol product was removed via filtration, the CH2Cl2 was removed, and the sample was dissolve in HEPES buffer for MRI analysis. The other oxidation reactions occurred entirely in HEPES buffer.” for “s^−1).”
The capability of 3 to serve as a MRI contrast agent was assessed with a 3 T clinical MRI scanner. All samples were run in 298 K aqueous solutions containing 50 mM HEPES buffered to pH 7.00, using a 3 T field provided by a clinical MRI scanner. All samples were prepared under air. The oxidized samples were prepared by directly adding H2O2 to solutions of 3 in aqueous solutions buffered to pH 7.0. The oxidation reactions were allowed to proceed for 30 min at 298 K before the T1 measurements were taken. […]

[5] = Stability in aerobic solution / to pH; format: physicochemical; conditions: pH >10
Procedure: Over this time, collected UV/vis spectra (FIGS. 2 & 3) display changes in the region between 200 nm and 300 nm which are consistent with the oxidation of the quinol to a para-quinone. Past 24 h, the solution begins to turn brown, consistent with oxidation of the manganese to Mn(III) and/or Mn(IV). For the spectrophotometric analysis, the Fe(ClO4)2 solution was added to a MeCN solution containing 0.10 mM [Mn(Hptp1)(MeCN)]^2+; the mixture was scanned at 0 min (dashed red), 30 min (dashed pink), and 60 min (dashed blue). […] At 15 h, approximately 11% of the Mn(II) has been displaced by Fe(II) as indicated by data in FIG. 3.
The stability of 3 to air and adventitious metal ions was assessed primarily by UV/vis spectroscopy. […] Complex 3, however, is susceptible to metal exchange. When equimolar amounts of 3 and Fe(ClO4)2 are mixed in MeCN, 80% of the Mn(II) is replaced by Fe(II) by 3 h.

Source text for physchem: as §2, §3

cis-Dibromo(N,N′-bis(2,5-benzoquinone)-N,N′-bis(2-pyridinylmethyl)-1,2-ethanediamine)manganese(II) [Complex 4]
solubility in water (Solubility in water): poor and poor solubility

Oc1ccc(O)c(CN(CCN(Cc2ccccn2)Cc2ccccn2)Cc2ccccn2)c1 [Complex H2qtp1, N-(2,5-Dihydroxybenzyl)-N,N′,N′-tris(2-pyridinylmethyl)-1,2-ethanediamine]
equilibrium constant for [Mn(L)(MeCN)]^2+ + TPEN → [Mn(TPEN)]^2+ + L ([1]; in both water and MeCN): 0.4
log(K) for the coordination of ligand to Mn(II) ([1]; titration with TPEN, 1H NMR, water and MeCN): 10.7

Oc1ccc2c(c1)CN(Cc1ccccn1)CCN(Cc1ccccn1)Cc1cc(O)ccc1[O][Mn][O]2 [[Mn(H2qtp2)]]
log(β) [2]: −7.19 (±0.01)
percent formation of Mn(II) species ([2]; pH 7.0): 40.3%
percent formation of Mn(II) species ([2]; pH 7.4): 66.2%

O.O.O.O.O.O.[Mn+2] [[Mn(H2O)6]^2+]
r1, previously found [3]: about 5.3 mM^−1s^−1

Oc1ccc(O)c(CN(CCN(Cc2ccccn2)Cc2cc(O)ccc2O)Cc2ccccn2)c1 [H6qtp2^2+]
log(β) [2]: 11.65 (±0.05)

O.O=C([O-])CN(CCN(CC(=O)[O-])CC(=O)[O-])CC(=O)[O-].[Mn+2] [[Mn(EDTA)(H2O)]^2−, reference compound]
r1 (T1-weighted relaxivity) [4]: 1.73 mM⁻¹ s⁻¹

Oc1ccc(O)c(CN(CCN(Cc2ccccn2)Cc2cc(O)ccc2O)Cc2ccccn2)c1 [Complex H4qtp2, N,N′-Bis(2,5-dihydroxybenzyl)-N,N′-bis(2-pyridinylmethyl)-1,2-ethanediamine]
stability of ligand to pH [5]: degrades under basic conditions
pKa (physchem; pKL1 (free ligand pKa)): 4.47
pKa (physchem; pKL2 (free ligand pKa)): 7.18
log(β) [2]: 0.00

Oc1ccc(O)c(CN(CCN(Cc2ccccn2)Cc2cc(O)ccc2O)Cc2ccccn2)c1 [H5qtp2^+]
log(β) [2]: 7.18 (±0.03)
